In patent publication US10328128B2, “Treatment of infection by human enterovirus D68” (priority 2014, dated 2019):

What was measured:
Format in all cases: cell-based, Human enterovirus D68
[1] = system: EV-D68 strain USA-MO/18949; assay: CPE inhibition assay in RD cells; conditions: Enterovirus D, EVD68, 120 h; RD cells, 100 CCID50 virus, 33° C., five days, strain USA-MO/18949; read-out: Mean EC50 ± SD
[2] = system: EV-D68 strain USA-IL/18956; assay: CPE inhibition assay in RD cells; conditions: Enterovirus D, EVD68, 120 h; RD cells, 100 CCID50 virus, 33° C., five days, strain USA-IL/18956; read-out: Mean EC50 ± SD
EV-D68 strain Fermon = assay: CPE inhibition assay repeated in HeLa H1 cells; conditions: Enterovirus D, EVD68
EV-D68 Fermon strain = assay: CPE inhibition assay over a range of virus doses; conditions: Enterovirus D, EVD68; 100-fold virus dose range; strain not given; read-out: EC50 variation over a range of virus doses
Experimental: Antiviral activity was assessed in a homogeneous cell-based assay that measured inhibition of viral cytopathic effect in human rhabdomyosarcoma cells (RD; ATCC CCL-136). The viruses included three representative EV-D68 strains from the 2014 outbreak (USA-MO/18947, USA-MO/18949, USA-IL/18956) (Brown et al. 2014. Seven Strains of Enterovirus D68 Detected in the United States during the 2014 Severe Respiratory Disease Outbreak. Genome Announc 2:e01201-01214), as well as the 1962 prototype strain (Fermon) (Schieble et al. 1967. A probable new human picornavirus associated with respiratory diseases. Am J Epidemiol 85:297-310). For the CPE inhibition assay, half-log10 dilutions of drug compound (10 μM to 0.001 μM) were combined with 100 CCID50 (50% cell culture infectious dose) of virus and added to monolayers of RD cells (5000 cells per well) in 384-well, white, flat-bottom microplates. Plates were incubated at 33° C. and 5% CO2 for five days, and cell viability was assessed using ATPLite® (Perkin Elmer, Waltham, Mass.) by adding 15 μL of cell lysis buffer and then 15 μL of substrate solution, following the manufacturer's recommendations.
In both studies, the methods were somewhat different from our approach. […] For the other compounds tested, similar EC50 values were observed across this same dose range. […]

[3] = system: EV-D68 1962 prototype strain (Fermon); assay: CPE inhibition assay in RD cells; conditions: Enterovirus D, EVD68, 120 h; RD cells, 100 CCID50 virus, 33° C., five days, strain Fermon; read-out: Mean EC50 ± SD
[4] = system: EV-D68 strain USA-MO/18947; assay: CPE inhibition assay repeated in HeLa H1 cells; conditions: Enterovirus D, EVD68
[5] = system: EV-D68 strain USA-IL/18956; assay: CPE inhibition assay repeated in HeLa H1 cells; conditions: Enterovirus D, EVD68
[6] = system: EV-D68 strain USA-MO/18949; assay: CPE inhibition assay repeated in HeLa H1 cells; conditions: Enterovirus D, EVD68
four EV-D68 strains [7] = assay: microbe, parasite or virus in culture; conditions: RD cells
four EV-D68 strains [8] = assay: CPE inhibition assay in HeLa H1 cells, text summaries over the strains; conditions: Enterovirus D, EVD68, all four strains, read-out: EC50 values, range over all four strains in HeLa H1 cells
[9] = system: EV-D68 strain USA-MO/18947; assay: CPE inhibition assay in RD cells; conditions: Enterovirus D, EVD68, 120 h; RD cells, 100 CCID50 virus, 33° C., five days, strain USA-MO/18947; read-out: Mean EC50 ± SD

For `Cc1cc(CCCOc2c(C)cc(-c3noc(C(F)(F)F)n3)cc2C)on1` [Pleconaril, pleconaril], the EC50 [1] was 6.09 ± 0.26 µM, the EC50 [2] was 6.11 ± 1.05 µM and the EC50 (EV-D68 strain Fermon) was 360 nM. It also gave an EC50 (EV-D68 Fermon strain) of 300 to 500 nM, an EC50 [3] of 380 ± 10 nM and an EC50 [4] of 131 nM. For the same compound, the EC50 [5] was 321 nM, the EC50 [6] was 358 nM and the “concentrations at which activity against the 2014 strains was detected” value (four EV-D68 strains [7]; 2014 strains) was “greater than 4 μM”. For the same compound, the “EC50 against the 2014 strains relative to the Fermon strain” value (four EV-D68 strains [7]; higher against 2014 strains) was “about 10 fold”, the EC50 (four EV-D68 strains [8]) was 130 to 360 nM and the EC50 [9] was 4.44 ± 0.55 µM.
